Measurements taken from patent US12691234B2, “Methods employing gaseous nitric oxide for inhibiting tumor growth” (Beyond Air, Inc., priority 2019, dated 2026).

Legend:
CT-26 tumor = assay: Local gNO administration to CT26 tumor-bearing mice, primary tumor; assay type: in vivo, Balb/c mouse
Description: Test article treatment: Mice were first anesthetized by an intraperitoneal (i.p) injection of 100 mg/kg ketamine and 20 mg/kg xylazine hydrochloride solution. After 10 minutes, tumor-bearing mice were treated with the indicated dose of gNO.
In all protocols, the gas was delivered from NO in N2 cylinders. The outlet pressure was set to 2-3.5 bar using a pressure regulator that was connected directly to the cylinder.
In protocols that involve administration by needle injection, a silicone hose was connected directly to the pressure regulator on one end and to a manual or digital MFC on the other end. The flow was adjusted to 0.05 LPM-0.25 LPM. An additional silicone hose was connected to the flow controller as well as to a 23 G hypodermic needle. The needle was inserted horizontally into the center of each tumor.
Mice were inoculated subcutaneously with 5×10^5 CT-26 cells suspended in 100 μL Hank's Balanced Salt Solution (HBSS) into the low lateral side of the back. Local tumor growth was determined by measuring two mutually orthogonal tumor diameters with a caliper. The volume of the tumor was calculated using the formula: Vol=D1×D2×D2/2, where D1, D2 are two mutually orthogonal tumor diameters.
Air-1 is a female Balb/c mouse that was treated twice. On day 0 the tumor volume was 64.85 mm^3. […] This was followed by air administration for 4 minutes administered to the outer layer of the tumorusing a cap, such as shown in FIG. 11C.
NO-1 is a female Balb/c mouse and was treated once. […] Then, the skin was removed from the tumor, and the tumor was re-exposed to gNO via a perforated flask filled with gNO using the same parameters.
NO-2 is a male Balb/c mouse and was treated 3 times. On day 0 the tumor volume was 38.51 mm^3. Day 0—gNO at 50,000 ppm was administered for 3.8 minutes at a flow rate of 0.9 using a cap. Day 5: gNO at 10,000 ppm was administered for 30 minutes using a cap. Then, gNO was delivered intra-tumorally by a 23 G needle such as shown in FIG. 11B at 0.3 LPM for another 10 minutes, using an intra-tumoral channel. The tip of the needle was directed at the outside area. Day 11: gNO at 10,000 ppm was delivered to the tumor for 5 minutes and at a flow rate of 0.3 LPM, using a 23 G needle and an intra-tumoral channel.
In an additional set of experiments, aluminum disposable gas cylinders were used. A flow meter was connected directly to the cylinder, to which a gas delivery tubing was connected. The tumor was inserted into a small flask trough a 1 cm hole and a plastic holder. A small hole at the bottom of the flask enabled to lower the pressure inside the flask. […]

4T1 cells = assay: Third inoculation with 4T1 breast cancer cells in CT26 gNO-immunized mouse; assay type: in vivo, Balb/c mouse; details: mouse treated with 25,000 ppm NO twice 15 minutes; 4T1 inoculated 30 days post second inoculation
Description: Balb/c mouse was inoculated with 500,000 CT26 cells to the right flank. CT26 tumor was treated with 25,000 ppm NO for 15 minutes at a flow rate of 0.25 LPM. Seven days post gas treatment, this mouse was treated once again using the same protocol. Twelve days post the first NO treatment, this mouse was re-inoculated with 500,000 CT26 cells to the left flank. A third inoculation of cancer cells was performed 30 days post the second cell inoculation, using mouse breast cancer cells, was performed as well and the growth of a third inoculation of breast cancer cells, 4T1 cells. Forty-four days post challenge assay start (second inoculation), this mouse was sacrificed, and his spleen was harvested and preserved in RPMI-based media at 4° c. until processing of it. The spleen was processed into a sterile 35 mm culture dish containing 5 ml of RPMI-based media. Any extra connective tissues or fat was trimmed from the spleen. The flat end of a plunger was used to mince the spleen by crushing the spleen to release the splenocytes. A 70 μm strainer was primed by passing 1 ml of PBS through it and placed on a sterile 50 mL conical tube. The pellet was collected and transferred through the strainer via a 5 mL serological pipette. The strainer was washed with 3 mL of RPMI-based media. Tube will be centrifuged at 300×g for 10 minutes. […]

CT26 challenge tumor = assay: Challenge assay in CT26 tumor-bearing mice; assay type: in vivo, mouse
Description: Challenge tumor inoculation: Up to 21 days after gas treatment was applied to the primary tumor, the appropriate cancer cell suspensions were prepared as described herein and inoculation of cells was repeated on the contralateral flank of the mice. Administration was performed as soon as possible following cell suspension preparation and after manual shaking prior to withdrawal of the cell suspension.
The percentage of challenge tumor take was monitored 2-3 times a week by taking a look at the inoculated site and touching this area to look for small tumors that are not yet visible. Naïve mice inoculated with tumor cells for the first time served as an internal control.
Mixing of cells was performed immediately before injection to minimize leukocyte interactions within the syringe. Mice were observed 2-3 times a week and tumor development was determined by caliper measurements of tumor dimensions as described herein. Splenocytes were extracted from a CT26 tumor-bearing mouse, which was previously treated with 25,000 ppm NO for two 15-minute courses. This mouse was re-inoculated with CT26 cancer cells 12 days post treatment. […] Tumor take of visible outgrowths was monitored 2 to 3 times per week by taking a look at the inoculated site and touching this area to look for small tumors that are not yet visible Naïve mice inoculated s.c. with 500,000 CT26 served as the control group. […]

[N]=O [gNO, nitric oxide]
tumor in photographs after treatment (CT-26 tumor; 10,000 ppm gNO in flask, 0.9 LPM, 20 minutes, up to 14 days post treatment): the tumor was destructed | mice cured (CT-26 tumor; 25,000 ppm gNO intra-tumoral, 15 minutes, 0.25 LPM, repeated a week later, 44 days post the first treatment): 50% | tumor 9 days after treatment (CT-26 tumor; 200,000 ppm gNO for 2 seconds, 0.01 LPM): the tumor disappeared | size of air-treated tumor relative to gNO-treated tumors (CT-26 tumor; mice NO-1 and NO-2, 10,000-50,000 ppm gNO, 12 days post treatment 1): more than times bigger | growth of a third inoculation of breast cancer cells (4T1 cells): inhibited | rejection of secondary CT26 tumor cell inoculation (CT26 challenge tumor; 25,000 ppm 30 minutes, 50,000 ppm 10 minutes or 200,000 ppm 2-35 seconds, end of follow-up): all NO-treated mice rejected a secondary CT26 tumor cell inoculation | tumor development after CT26 re-inoculation (CT26 challenge tumor; 25,000 ppm NO two 15-minute courses, re-inoculated 12 days post treatment, 44 days after challenge): no signs of tumor development were detected
